Measurements from patent US20250002507A1, “7,8-DIHYDRO-5H-1,6-NAPHTHYRIDINE DERIVATIVES AS POSITIVE ALLOSTERIC MODULATORS OF THE MUSCARINIC ACETYLCHOLINE RECEPTOR M4 FOR TREATING NEUROLOGICAL AND PSYCHIATRIC DISORDERS” (Vanderbilt University, priority 2021, published 2025).
pEC50: −log10 of the molar value.

Target: T1, Human M4 (Homo sapiens, UniProt P08173)
T1 construct: expressed in transfected cells
T1 sequence (P08173 1-479): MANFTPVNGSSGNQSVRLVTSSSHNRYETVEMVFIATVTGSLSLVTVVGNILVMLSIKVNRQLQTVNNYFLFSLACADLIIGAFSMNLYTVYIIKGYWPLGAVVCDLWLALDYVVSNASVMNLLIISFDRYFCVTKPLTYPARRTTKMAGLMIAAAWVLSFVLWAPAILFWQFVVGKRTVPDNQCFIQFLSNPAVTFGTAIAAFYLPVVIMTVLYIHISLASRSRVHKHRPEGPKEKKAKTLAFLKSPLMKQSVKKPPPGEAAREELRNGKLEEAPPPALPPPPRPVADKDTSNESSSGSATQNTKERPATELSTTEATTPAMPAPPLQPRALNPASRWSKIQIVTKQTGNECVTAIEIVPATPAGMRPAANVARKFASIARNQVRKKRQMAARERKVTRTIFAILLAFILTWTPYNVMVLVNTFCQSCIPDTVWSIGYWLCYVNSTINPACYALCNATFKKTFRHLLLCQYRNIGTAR
Assay: mAChR M4 cell-based functional assay (calcium flux, potentiation of EC20 acetylcholine response), hM4-Gqi5 CHO-K1 cells
Conditions: Table 3; for Emax at 30 µM: CHO-K1, Human M4, % ACh maximum at 30 μM, read-out: Emax (% ACh maximum at 30 μM); for pEC50: potentiation of EC20 acetylcholine response, calcium flux, CHO-K1 cells, read-out: Human M4 EC50
Method in brief: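 CHO-K1 cells stably expressing human M4 with chimeric Gqi5, loaded with Fluo-4 AM 50 min at 37 °C; calcium flux read by FDSS. 11-point 1:3 compound curves added, then EC20 acetylcholine at 144 s; potentiation of the EC20 response fitted by four-parameter logistic to give EC50 and Emax.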

Emax at 30 µM | pEC50 | Compound
48% | 6.23 | COc1ccc2c(c1)CCCN2c1cnc2c(c1)CN(c1nn3c(C(F)(F)F)nnc3c(C)c1C)CC2 [Compound 229, 6-(7,8-dimethyl-3-(trifluoromethyl)-[1,2,4]triazolo[4,3-b]pyridazin-6-yl)-3-(6-methoxy-3,4-dihydroquinolin-1(2H)-yl)-5,6,7,8-tetrahydro-1,6-naphthyridine]
83% | 6.40 | Cc1c(N2CCc3ncc(N4CCOc5ccccc54)cc3C2)nn2c(C(F)(F)F)nnc2c1C [Compound 230, 4-(6-(7,8-dimethyl-3-(trifluoromethyl)-[1,2,4]triazolo[4,3-b]pyridazin-6-yl)-5,6,7,8-tetrahydro-1,6-naphthyridin-3-yl)-3,4-dihydro-2H-benzo[b][1,4]oxazine]
65% | 5.72 | Cc1c(N2CCc3ncc(N4CCCc5ccccc54)cc3C2)nn2c(C(F)(F)F)nnc2c1C [Compound 231, 3-(3,4-dihydroquinolin-1(2H)-yl)-6-(7,8-dimethyl-3-(trifluoromethyl)-[1,2,4]triazolo[4,3-b]pyridazin-6-yl)-5,6,7,8-tetrahydro-1,6-naphthyridine]
83% | 6.45 | Cc1c(N2CCc3ncc(N4CCOc5ccc(F)cc54)cc3C2)nn2c(C(F)(F)F)nnc2c1C [Compound 232, 4-(6-(7,8-dimethyl-3-(trifluoromethyl)-[1,2,4]triazolo[4,3-b]pyridazin-6-yl)-5,6,7,8-tetrahydro-1,6-naphthyridin-3-yl)-6-fluoro-3,4-dihydro-2H-benzo[b][1,4]oxazine]
97% | 5.40 | Cc1cc2nncn2nc1N1CCc2ncc(C(C)(C)O)cc2C1 [Compound 233, 2-(6-(7-methyl-[1,2,4]triazolo[4,3-b]pyridazin-6-yl)-5,6,7,8-tetrahydro-1,6-naphthyridin-3-yl)propan-2-ol]
78% | 6.48 | Cc1c(N2CCc3ncc(-c4cnn(C5CC5)c4)cc3C2)nn2c(C(F)(F)F)nnc2c1C [Compound 234, 3-(1-cyclopropyl-1H-pyrazol-4-yl)-6-(7,8-dimethyl-3-(trifluoromethyl)-[1,2,4]triazolo[4,3-b]pyridazin-6-yl)-5,6,7,8-tetrahydro-1,6-naphthyridine]
76% | 6.10 | Cc1c(N2CCc3ncc(-c4cnn(C5CCC5)c4)cc3C2)nn2c(C(F)(F)F)nnc2c1C [Compound 235, 3-(1-cyclobutyl-1H-pyrazol-4-yl)-6-(7,8-dimethyl-3-(trifluoromethyl)-[1,2,4]triazolo[4,3-b]pyridazin-6-yl)-5,6,7,8-tetrahydro-1,6-naphthyridine]
65% | 6.78 | Cc1cnn(C)c1-c1cnc2c(c1)CN(c1nn3c(C(F)(F)F)nnc3c(C)c1C)CC2 [Compound 236, 3-(1,4-dimethyl-1H-pyrazol-5-yl)-6-(7,8-dimethyl-3-(trifluoromethyl)-[1,2,4]triazolo[4,3-b]pyridazin-6-yl)-5,6,7,8-tetrahydro-1,6-naphthyridine]
84% | 6.48 | CCn1cc(-c2cnc3c(c2)CN(c2nn4c(C(F)(F)F)nnc4c(C)c2C)CC3)cn1 [Compound 237, 6-(7,8-dimethyl-3-(trifluoromethyl)-[1,2,4]triazolo[4,3-b]pyridazin-6-yl)-3-(1-ethyl-1H-pyrazol-4-yl)-5,6,7,8-tetrahydro-1,6-naphthyridine]
55% | 5.88 | Cc1c(N2CCc3ncc(-c4cnn(Cc5ccccc5)c4)cc3C2)nn2c(C(F)(F)F)nnc2c1C [Compound 238, 3-(1-benzyl-1H-pyrazol-4-yl)-6-(7,8-dimethyl-3-(trifluoromethyl)-[1,2,4]triazolo[4,3-b]pyridazin-6-yl)-5,6,7,8-tetrahydro-1,6-naphthyridine]
57% | 6.21 | COc1cnc(Cl)c(-c2cnc3c(c2)CN(c2nn4c(C(F)(F)F)nnc4c(C)c2C)CC3)c1 [Compound 239, 3-(2-chloro-5-methoxypyridin-3-yl)-6-(7,8-dimethyl-3-(trifluoromethyl)-[1,2,4]triazolo[4,3-b]pyridazin-6-yl)-5,6,7,8-tetrahydro-1,6-naphthyridine]
77% | 6.80 | Cc1c(N2CCc3ncc(-c4cnn(C)c4)cc3C2)nn2c(C(F)(F)F)nnc2c1C [Compound 240, 6-(7,8-dimethyl-3-(trifluoromethyl)-[1,2,4]triazolo[4,3-b]pyridazin-6-yl)-3-(1-methyl-1H-pyrazol-4-yl)-5,6,7,8-tetrahydro-1,6-naphthyridine]
61% | 5.91 | Cc1c(N2CCc3ncc(-c4ccc(N(C)C)nc4)cc3C2)nn2c(C(F)(F)F)nnc2c1C [Compound 241, 5-(6-(7,8-dimethyl-3-(trifluoromethyl)-[1,2,4]triazolo[4,3-b]pyridazin-6-yl)-5,6,7,8-tetrahydro-1,6-naphthyridin-3-yl)-N,N-dimethylpyridin-2-amine]
80% | 6.16 | Cc1c(N2CCc3ncc(-n4nccc4C)cc3C2)nn2c(C(F)(F)F)nnc2c1C [Compound 242, 6-(7,8-dimethyl-3-(trifluoromethyl)-[1,2,4]triazolo[4,3-b]pyridazin-6-yl)-3-(5-methyl-1H-pyrazol-1-yl)-5,6,7,8-tetrahydro-1,6-naphthyridine]
77% | 6.14 | Cc1cc(C)n(-c2cnc3c(c2)CN(c2nn4c(C(F)(F)F)nnc4c(C)c2C)CC3)n1 [Compound 243, 3-(3,5-dimethyl-1H-pyrazol-1-yl)-6-(7,8-dimethyl-3-(trifluoromethyl)-[1,2,4]triazolo[4,3-b]pyridazin-6-yl)-5,6,7,8-tetrahydro-1,6-naphthyridine]
86% | 6.26 | Cc1c(N2CCc3ncc(-n4cccc4)cc3C2)nn2c(C(F)(F)F)nnc2c1C [Compound 244, 6-(7,8-dimethyl-3-(trifluoromethyl)-[1,2,4]triazolo[4,3-b]pyridazin-6-yl)-3-(1H-pyrrol-1-yl)-5,6,7,8-tetrahydro-1,6-naphthyridine]
80% | 6.17 | Cc1c(N2CCc3ncc(-c4ccc(F)nc4)cc3C2)nn2c(C(F)(F)F)nnc2c1C [Compound 245, 6-(7,8-dimethyl-3-(trifluoromethyl)-[1,2,4]triazolo[4,3-b]pyridazin-6-yl)-3-(6-fluoropyridin-3-yl)-5,6,7,8-tetrahydro-1,6-naphthyridine]
90% | 6.39 | Cc1c(N2Cc3cc(C(F)(F)F)cnc3C(C)C2)nn2cnnc2c1C (stereo not shown) [Compound 246, 6-(7,8-dimethyl-[1,2,4]triazolo[4,3-b]pyridazin-6-yl)-8-methyl-3-(trifluoromethyl)-5,6,7,8-tetrahydro-1,6-naphthyridine]
74% | 6.51 | Cc1c(N2CCc3ncc(-n4cccn4)cc3C2)nn2c(C(F)(F)F)nnc2c1C [Compound 247, 6-(7,8-dimethyl-3-(trifluoromethyl)-[1,2,4]triazolo[4,3-b]pyridazin-6-yl)-3-(1H-pyrazol-1-yl)-5,6,7,8-tetrahydro-1,6-naphthyridine]
58% | 5.64 | Cc1c(N2CCc3ncc(-n4ccc5ccccc54)cc3C2)nn2c(C(F)(F)F)nnc2c1C [Compound 248, 6-(7,8-dimethyl-3-(trifluoromethyl)-[1,2,4]triazolo[4,3-b]pyridazin-6-yl)-3-(1H-indol-1-yl)-5,6,7,8-tetrahydro-1,6-naphthyridine]
